This passage reports inhibition of leucine aminopeptidase, inhibition and IC50 results from patent US5536737A, “Compound having prolyl endopeptidase inhibitory activity and pharmaceutical use thereof” (Japan Tobacco Inc., priority 1992, dated 1996).

What all share (assay type): biochemical
The test system of one test is leucine aminopeptidase. Description: Leucine aminopeptidase-inhibitory activity. The note with it: concentration 0.1 μM; swine kidney, pH 8.0. As for the experimental part: (§1) Inhibitory activity against various proteases
(§2) The compound of the present invention having predetermined concentrations was tested for the specificity of the inhibitory activity against various proteases according to a known test method.
(§3) The methods for the determination of the inhibitory activity against various proteases other than prolyl endopeptidase and the method for calculating the inhibition are as follows.
Determination of leucine aminopeptidase-inhibitory activity
In completely the same manner as above, respective fluorescence (d1, d2 and d3) was determined using a 50 mM Tris-HCl buffer (pH 8.0) as a buffer for determination, a 0.2 μM solution of leucine aminopeptidase (derived from swine kidney, Sigma) in the same buffer as an enzyme solution and a 200 μM solution of 7-leucyl-4-methyl-coumarinamide (Peptide Institute, Inc.) in the same buffer as a substrate solution.
(§4) Using the fluorescence x1, x2 and x3 wherein x is b, c, d, e or f, measured in the above-mentioned manner, the inhibition against various proteases was calculated by the following formula: [formula]

The target in a further test is T1, chymotrypsin (Bos taurus, UniProt P00766).
T1 construct: purchased Sigma; host or cells: bovine pancreas
The test can be described thus: Chymotrypsin-inhibitory activity. The note with it: concentration 0.1 μM; bovine pancreas, pH 8.0. As to the method: as §1, §2, §3
Determination of chymotrypsin-inhibitory activity
In completely the same manner as above, respective fluorescence (c1, c2 and c3) was determined using a 50 mM Tris-HCl buffer (pH 8.0) as a buffer for determination, a 0.2 μM solution of chymotrypsin (derived from bovine pancreas, Sigma) in the same buffer as an enzyme solution, and a 200 μM solution of 7-(N-succinyl-leucyl-leucyl-varyl-tyrosyl)-4-methylcoumarinamide (Peptide Institute, Inc.) in the same buffer as a substrate solution.
as §4

The target of another test is T2, prolyl endopeptidase (Rattus norvegicus, UniProt O70196).
T2 construct: prolyl endopeptidase extracted from rat brain; from tissue; host or cells: rat brain
T2 sequence (O70196 1-710): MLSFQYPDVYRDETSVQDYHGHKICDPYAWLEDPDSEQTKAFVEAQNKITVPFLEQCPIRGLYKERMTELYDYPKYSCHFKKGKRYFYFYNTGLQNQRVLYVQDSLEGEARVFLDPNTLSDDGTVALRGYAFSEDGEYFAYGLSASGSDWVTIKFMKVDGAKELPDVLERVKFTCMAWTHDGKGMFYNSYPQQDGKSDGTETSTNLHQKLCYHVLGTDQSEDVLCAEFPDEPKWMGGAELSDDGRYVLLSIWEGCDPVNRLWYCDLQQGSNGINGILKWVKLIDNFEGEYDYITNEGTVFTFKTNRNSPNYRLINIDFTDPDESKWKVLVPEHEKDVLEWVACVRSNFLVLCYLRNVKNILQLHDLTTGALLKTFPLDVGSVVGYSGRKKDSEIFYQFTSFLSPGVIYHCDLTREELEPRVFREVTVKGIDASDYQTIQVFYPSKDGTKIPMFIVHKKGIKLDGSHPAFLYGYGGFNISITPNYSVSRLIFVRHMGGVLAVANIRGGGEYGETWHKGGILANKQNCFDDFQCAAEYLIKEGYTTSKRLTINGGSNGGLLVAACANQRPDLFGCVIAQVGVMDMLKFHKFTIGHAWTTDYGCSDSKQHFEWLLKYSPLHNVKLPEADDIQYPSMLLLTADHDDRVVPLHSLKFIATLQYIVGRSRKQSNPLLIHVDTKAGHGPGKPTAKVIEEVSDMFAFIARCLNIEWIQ
The test can be described thus: Prolyl endopeptidase-inhibitory activity. The note with it: for inhibition at 0.1 µM: read-out: inhibition of prolyl endopeptidase. As to the method: Prolyl endopeptidase-inhibitory activity
A mixture of a 0.1M potassium-sodium phosphate buffer (pH 7.0, 2675 μl ), a solution of the compound of the present invention in a 0.1M potassium-sodium phosphate buffer (pH 7.0, 100 μl ) and a solution of prolyl endopeptidase extracted from rat brain in a 25 mM sodium phosphate buffer (100 μl ) [123 unit/1, pH 6.8, containing 1 mM dithiothreitol and 0.5 mM EDTA, prepared by the method described in J. Neurochem., 35, 527 (1980)] was preincubated at 30° C. for 30 minutes. Thereto was added a 0.2 mM solution of 7-(N-succinyl-glycyl-prolyl)-4methylcoumarinamide (Peptide Institute, INC.) in a 0.1M potassium-sodium phosphate buffer (pH 7.0, 125 μl), and the mixture was incubated at 30° C. for 1 hour. The reaction mixture was immersed in ice (0° C.) to terminate the reaction, and the fluorescence (a1) was determined ten minutes later (excitation at 370 nm and emission at 440 nm). Concurrently, an experiment wherein, in the above system, the prolyl endopeptidase solution was substituted for a 25 mM sodium phosphate buffer (pH 6.8, containing 1 mM dithiothreitol and 0.5 mM EDTA) and an experiment wherein the solution of the compound of the present invention was substituted for a 0.1M potassium-sodium phosphate buffer (pH 7.0) were conducted. Each fluorescence (a2 and a3) was determined [See Tanpakushitsu Kakusan Koso, 29, 127 (1984)]. The prolyl endopeptidase inhibition was calculated by the following formula, and IC50, a concentration necessary for 50% inhibition, was estimated by using a semilogarithmic graph paper. [formula]

The target of a further test is T3, elastase (Sus scrofa, UniProt P00772).
T3 construct: purchased Sigma; host or cells: swine pancreas
Description: Elastase-inhibitory activity. The note with it: concentration 0.1 μM; swine pancreas, pH 8.5. As for the experimental part:
as §1, §2, §3
Determination of elastase-inhibitory activity
In completely the same manner as above, respective fluorescence (e1, e2 and e3) was determined using a 1 mM Tris-HCl buffer (pH 8.5) as a buffer for determination, a 0.2 μM solution of elastase (derived from swine pancreas, Sigma) in the same buffer as an enzyme solution and a 200 μM solution of 7-(N-succinyl-aranyl-prolyl-aranyl)-4-methylcoumarinamide (Peptide Institute, Inc.) in the same buffer as a substrate solution.
as §4

The next test deals with T4, trypsin (Bos taurus, UniProt P00760).
T4 construct: purchased Sigma; host or cells: bovine pancreas
T4 sequence (P00760 24-246): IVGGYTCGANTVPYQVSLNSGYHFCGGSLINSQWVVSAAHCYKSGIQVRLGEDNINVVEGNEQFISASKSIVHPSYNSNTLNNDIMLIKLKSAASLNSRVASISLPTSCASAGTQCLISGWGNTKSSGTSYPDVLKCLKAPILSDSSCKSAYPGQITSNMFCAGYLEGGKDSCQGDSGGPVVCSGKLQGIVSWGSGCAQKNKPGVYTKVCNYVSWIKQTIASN
Description: Trypsin-inhibitory activity. The note with it: concentration 0.1 μM; bovine pancreas, pH 8.0. As for the experimental part:
as §1, §2, §3
Determination of trypsin-inhibitory activity
In the present invention, a 50 mM Tris-HCI buffer (pH 8.0) was used as a buffer for measurement.
To a mixture of the above-mentioned buffer (850 μl ), a solution of the compound of the present invention in the same buffer (50 μl ) and a 0.02 μM solution of trypsin (derived from bovine pancreas, Sigma) in the same buffer (50 μl ) was added a 200 μM solution of 7-(prolyl-phenylaranyl-arginyl)-4methylcoumarinamide (Peptide Institute, Inc.) in the same buffer (50 μl), and the mixture was incubated at 30° C. for 1 hour. The reaction mixture was immersed in ice (0° C.) to terminate the reaction, and the fluorescence (b1) was determined 1 hour later (excitation at 370 nm and emission at 440 nm). Concurrently, an experiment wherein, in the system above, the trypsin solution was substituted for a buffer and an experiment wherein the solution of the compound of the present invention was substituted for said buffer were conducted. Each fluorescence (b2 and b3) was determined.
as §4

The target in the next test is T5, cathepsin B (Bos taurus, UniProt P07688).
T5 construct: purchased Sigma; host or cells: bovine spleen
Description: Cathepsin B-inhibitory activity. The note with it: concentration 0.1 μM; bovine spleen, pH 6.0. As for the experimental part: as §1, §2, §3
Determination of cathepsin B-inhibitory activity
In completely the same manner as above, respective fluorescence (f1, f2 and f3) was determined using a 100 mM sodium phosphate buffer (pH 6.0; containing 1.33 mM EDTA Na2) as a buffer for determination, a 0.02 μM solution of cathepsin B (derived from bovine spleen, Sigma) in the same buffer as an enzyme solution and a 200 μM solution of 7-(N-benzyloxy-carbonyl-phenylaranyl-arginyl)-4-methylcouma-rinamide (Peptid Institute, Inc.) in the same buffer as a substrate solution.
as §4

T3 sequence (P00772 27-266): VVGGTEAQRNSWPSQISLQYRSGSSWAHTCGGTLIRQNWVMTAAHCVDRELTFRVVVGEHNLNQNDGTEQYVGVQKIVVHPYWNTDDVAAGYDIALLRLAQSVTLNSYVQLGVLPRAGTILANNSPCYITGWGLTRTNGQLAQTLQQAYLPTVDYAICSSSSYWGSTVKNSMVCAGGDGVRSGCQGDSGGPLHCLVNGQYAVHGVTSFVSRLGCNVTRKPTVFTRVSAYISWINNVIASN

As for `CC(C)(C)C(=O)OCC(=O)[C@@H]1CCCN1C(=O)[C@@H]1CCCN1C(=O)NCc1ccccc1` [Compound 4, (S)-N-(Phenylmethyl)-2-[[(S)-2-(pivaloyloxyacetyl)-1-pyrrolidinyl]carbonyl]-1-pyrrolidinecarboxamide], the inhibition of leucine aminopeptidase with leucine aminopeptidase is 0%. The inhibition – broadly, the percentage by which the read-out fell short of the control – at 0.1 µM stood at 0% on chymotrypsin; 97% at prolyl endopeptidase; 0% against elastase; 0% against trypsin; 0% against cathepsin B. On prolyl endopeptidase, the IC50 (usually the midpoint of a concentration-inhibition curve) amounted to 1 nM.
`CC(=O)OCC(=O)[C@@H]1CCCN1C(=O)[C@@H]1CCCN1C(=O)NCc1ccccc1` [Compound 1, (S)-2-[[(S)-2-(Acetoxyacetyl)-1-pyrrolidinyl]carbonyl]-N-(phenylmethyl)-1-pyrrolidinecarboxamide] showed an inhibition of leucine aminopeptidase in the test with leucine aminopeptidase of 0%. Moreover, the inhibition at 0.1 µM at chymotrypsin turned out to be 0%; on prolyl endopeptidase, 100%; against elastase, 0%; against trypsin, 0%; against cathepsin B, 0%. The compound further registered an IC50 against prolyl endopeptidase of 0.1 nM.
